Test results as given in patent US20020082254A1, “Compounds for treating disorders where a decreased level of plasma FFA is desired” (priority 2000, published 2002).
Read-outs that look alike come from different tables or passages of the source.

Legend:
[1] = target: T1, Lipoprotein lipase (LPL) (Bos taurus, UniProt P11151); assay: Lipoprotein lipase (LPL) inhibition assay, 3H-triolein/intralipid substrate; type: biochemical; details: read-out: LPL inhibition (% inh. at 50 μM)
T1 construct: Dr. Gunilla Olivecrona, Umea University (gift)
T1 sequence (P11151 29-478): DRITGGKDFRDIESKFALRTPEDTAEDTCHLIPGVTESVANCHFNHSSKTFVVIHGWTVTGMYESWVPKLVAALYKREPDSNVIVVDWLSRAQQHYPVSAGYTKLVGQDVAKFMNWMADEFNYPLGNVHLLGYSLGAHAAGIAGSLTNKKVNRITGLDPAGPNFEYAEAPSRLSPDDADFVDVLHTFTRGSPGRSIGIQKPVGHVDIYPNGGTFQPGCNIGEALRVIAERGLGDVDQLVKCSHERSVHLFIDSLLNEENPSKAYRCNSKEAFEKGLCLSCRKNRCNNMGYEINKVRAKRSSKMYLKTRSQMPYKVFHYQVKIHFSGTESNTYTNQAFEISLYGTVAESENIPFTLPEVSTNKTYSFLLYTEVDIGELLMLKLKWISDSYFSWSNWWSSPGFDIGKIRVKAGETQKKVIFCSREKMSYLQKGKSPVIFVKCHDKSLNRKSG
Source text: (§1) Lipoprotein Lipase (LPL) [Classified as EC 3.1.1.34 in accordance with the Recommendations of the Nomenclature Committee of the International Union of Biochemistry and Molecular Biology (available on the World Wide Web at the following address: http://www.chem.qmw.ac.uk/iubmb/enzyme/)]
Materials. The lipoprotein lipase employed was obtained from Dr. Gunilla Olivecrona of Umea University, Sweden. ^3H-triolein (TO) from Amersham, Buckinghamshire, U.K., cat No. TRA191; 5-20 Ci/mmol dissolved in toluene. Intralipid is from Kabi-Fresenius). Apo CII was obtained from PMSF-treated plasma from overnight fasted rats. All other reagents are of commercial grade and obtained from various commercial sources.
Methods. The preparation of the substrate is as follows:
25 μl of ^3H-Triolein evaporated under a gentle stream of N2 in a 27° C. room in 4 ml chromacol glass followed by the addition of 1 ml 10% intralipid. This is mixed and sonicated on ice for 5 minutes (50% pulse mode). This can be kept for 1 week at 4° C.
100 μl assay medium (0.3M Tris-Cl, 0.2M NaCl, 0.2 mg heparin/ml and 120 mg BSA/ml (fraction V, Sigma no. 3401, pH 8.5))
All mixed in a 13×100 mm glass tube and incubated for at least 5 minutes.
2. Add 5 μl LPL (of a solution containing 500 mU/mg)
Mix and incubate for 30 minutes at 25° C.
3. The reaction is stopped with 3.25 ml of a solution containing Methanol:chloroform:heptan 10:9:7. Add 1.05 ml buffer (100 mM Boric acid, 100 mM potassium carbonate pH 10.5) and mix 10 seconds per vial.
5. Take 1 ml of the upper phase+10 ml scintillation fluid and mix
6. Scintillation count for 5 minutes per vial.

[2] = target: T2, Hormone-sensitive lipase (HSL) (Homo sapiens, UniProt Q05469); assay: Hormone-sensitive lipase (HSL) inhibition assay, 3H-labeled triolein or MOME substrate; type: biochemical
T2 sequence (Q05469 1-1076): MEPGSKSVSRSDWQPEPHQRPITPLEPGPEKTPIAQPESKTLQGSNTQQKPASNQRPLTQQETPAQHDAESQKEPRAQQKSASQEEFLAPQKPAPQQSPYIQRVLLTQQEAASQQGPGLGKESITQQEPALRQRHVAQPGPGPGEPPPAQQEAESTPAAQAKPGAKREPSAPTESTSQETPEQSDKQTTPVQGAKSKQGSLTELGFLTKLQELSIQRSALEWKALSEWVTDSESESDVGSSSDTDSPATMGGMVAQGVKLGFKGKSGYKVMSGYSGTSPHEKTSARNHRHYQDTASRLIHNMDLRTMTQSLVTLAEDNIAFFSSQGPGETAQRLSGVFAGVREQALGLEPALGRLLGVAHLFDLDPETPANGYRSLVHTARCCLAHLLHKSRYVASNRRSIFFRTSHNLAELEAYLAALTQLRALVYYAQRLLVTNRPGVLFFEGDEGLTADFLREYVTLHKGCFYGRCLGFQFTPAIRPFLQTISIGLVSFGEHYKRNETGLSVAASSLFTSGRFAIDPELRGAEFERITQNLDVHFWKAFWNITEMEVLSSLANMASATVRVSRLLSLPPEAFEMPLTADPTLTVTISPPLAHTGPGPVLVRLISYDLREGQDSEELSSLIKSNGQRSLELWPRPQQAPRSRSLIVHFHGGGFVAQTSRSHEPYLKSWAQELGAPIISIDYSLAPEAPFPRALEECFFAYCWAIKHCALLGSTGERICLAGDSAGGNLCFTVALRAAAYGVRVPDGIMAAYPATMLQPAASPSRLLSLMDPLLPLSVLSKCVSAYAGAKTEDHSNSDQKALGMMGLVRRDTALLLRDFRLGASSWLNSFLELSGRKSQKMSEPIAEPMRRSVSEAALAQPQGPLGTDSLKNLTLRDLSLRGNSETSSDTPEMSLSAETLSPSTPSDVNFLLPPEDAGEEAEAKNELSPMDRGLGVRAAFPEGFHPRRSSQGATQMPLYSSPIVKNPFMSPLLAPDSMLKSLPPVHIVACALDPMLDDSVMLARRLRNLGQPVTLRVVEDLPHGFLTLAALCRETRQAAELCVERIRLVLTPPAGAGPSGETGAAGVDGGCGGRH
Source text: as §1, with “Hormone-sensitive lipase (HSL) [classified” for “Lipoprotein Lipase (LPL) [Classified”, “as a triacylglycerol lipase,” for “as”, “3.1.1.3,” for “3.1.1.34”
Materials. The Hormone-sensitive lipase employed was provided by Dr. Cecilia Holm of Lund University, Sweden, or produced and purified by Novo Nordisk (NN) using the reagents and protocols employed by Dr. Holm. The substrates used are: ^3H-labeled triolein (TO) from Amersham, Buckinghamshire, U.K. cat No. TRA191; 5-20 Ci/mmol dissolved in toluene, triolein (Sigma, Cat. No. T-1740) and mono-oleoyl-2-O-mono-oleylglycerol (MOME) synthesized at (NN) using the protocols provided by Dr. Cecilia Holm, Lund University, Sweden. Phosphatidyl choline (PC) and phosphatidyl inositol (PI) are from Sigma (St Luis Mo., cat. Nos. P-3556 and P-5954, respectively). All other reagents are of commercial grade and obtained from various commercial sources.
Methods. The preparation of the substrates is as follows:
TO: 30 μl PC:PI (20 mg/ml solution of PC:PI 3:1 prepared in chloroform)+128 μl cold TO+15 μl ^3H-TO
MOME: 30 μl PC:PI+100 μl cold MOME+200 μl ^3H-MOME
They are then evaporated under a gentle stream of N2 followed by 20-30 minutes in a Speedvac™ apparatus to ensure the absence of residual solvent.
The samples are prepared as follows:
Samples/controls: 78 μl PED-BSA+20 μl inhibitor (various concentrations)+2 μl HSL (undiluted 0.12 mg/ml). If no inhibitors are being tested, the reaction contains 98 μl PED-BSA+2 μl HSL.
The samples are put on ice and then sonicated as follows:
With TO as substrate, add 2 ml potassium buffer (0.1M potassium phosphate, pH 7) and then sonicate twice for 1 minute, with a 1-minute interval between cycles. Add an additional 1 ml potassium buffer and sonicate 4 times for 30 seconds, with a 30 second interval in between cycles. To finish, add 1 ml BSA 20%-in potassium buffer, mix by inversion and store on ice until use.
With MOME as substrate: add 2 ml potassium buffer and then sonicate twice for 1 minute, with a 1 minute interval between cycles. Add 1.6 ml potassium buffer and sonicate 4 times for 30 seconds, with a 30-second interval between cycles. To finish, add 0.4 ml BSA 20%-buffer, mix by inversion and store on ice until use.
The enzyme reaction is run at 37° C. The substrate mix is added to the various reactions at 10 second intervals, incubated for 30 minutes in a water bath and then stopped with 3.25 ml of a solution containing CH3OH:CHCl3:heptane (10:9:7). After the addition of 1.05 ml potassium buffer pH10.5, the sample is vortexed thoroughly and centrifuged for 20 min at 2000 r.p.m. One ml of the upper phase is added to 10 ml scintillation fluid, and mixed thoroughly by shaking.
The samples are then counted, 5 min per vial, in a scintillation counter.

[3] = read-out: HSL inhibition (IC50)

| Compound | inhibition at 50 µM [1] [%] | IC50 [2, 3] [nM] | IC50 [2] [nM] |
| --- | --- | --- | --- |
| COc1ccccc1OC(=O)NN1CCc2ccccc2C1 [Example 2, (3,4-Dihydro-1H-isoquinolin-2-yl)-carbamic acid 2-methoxy-phenyl Ester] | 2 | 6400 | – |
| COc1ccc(OC(=O)NN2CCc3ccccc3C2)cc1 [Example 3, (3,4-Dihydro-1H-isoquinolin-2-yl)-carbamic acid 4-methoxy-phenyl Ester] | 0 | 360 | – |
| COC(=O)c1ccc(OC(=O)NN2CCc3ccccc3C2)cc1 [Example 4, 4-(3,4-Dihydro-1H-isoquinolin-2-ylcarbamoyloxy)-benzoic Acid Methyl Ester] | 20 | 9900 | – |
| O=C(NN1CCc2ccccc2C1)Oc1ccc(Br)cc1 [Example 5, (3,4-Dihydro-1H-isoquinolin-2-yl)-carbamic acid 4-bromo-phenyl Ester] | 7 | 39 | – |
| O=C(NN1CCc2ccccc2C1)Oc1ccc(F)cc1 [Example 7] | 0 | 460 | – |
| Cc1ccc(OC(=O)NN2CCc3ccccc3C2)cc1 [Example 8, (3,4-Dihydro-1H-isoquinolin-2-yl)-carbamic Acid p-tolyl Ester] | 1 | 30 | – |
| Cc1ccccc1OC(=O)NN1CCc2ccccc2C1 [Example 9, (3,4-Dihydro-1H-isoquinolin-2-yl)-carbamic Acid o-tolyl Ester] | 7 | 1600 | – |
| Cc1cccc(OC(=O)NN2CCc3ccccc3C2)c1 [Example 10, (3,4-Dihydro-1H-isoquinolin-2-yl)-carbamic Acid m-tolyl Ester] | 5 | 670 | – |
| O=C(NN1CCc2ccccc2C1)Oc1c(Cl)cccc1Cl [Example 11, (3,4-Dihydro-1H-isoquinolin-2-yl)-carbamic Acid 2.6-dichloro-phenyl Ester] | 7 | > 10000 | – |
| O=C(NN1CCc2ccccc2C1)Oc1ccc(C(F)(F)F)cc1 [Example 13, (3,4-Dihydro-1H-isoquinolin-2-yl)-carbamic Acid 4-trifluoromethyl-phenyl Ester] | 3 | 45 | – |
| O=C(NN1CCc2ccccc2C1)Oc1ccccc1Br [Example 14, (3,4-Dihydro-1H-isoquinolin-2-yl)-carbamic Acid 2-bromo-phenyl Ester] | 7 | 800 | – |
| O=C(NN1CCc2ccccc2C1)Oc1ccccc1F [Example 15, (3,4-Dihydro-1H-isoquinolin-2-yl)-carbamic Acid 2-fluoro-phenyl Ester] | 0 | 1500 | – |
| COc1cc2c(cc1OC)CN(NC(=O)Oc1ccc(Cl)cc1)CC2 [Example 16, (6,7-Dimethoxy-3.4-dihydro-1H-isoquinolin-2-yl)-carbamic Acid 4-chloro-phenyl Ester] | 0 | 1400 | – |
| CCC(=O)c1ccc(OC(=O)NN2CCc3ccccc3C2)cc1 [Example 24] | – | > 10000 | – |
| CC(=O)Nc1ccc(OC(=O)NN2CCc3ccccc3C2)cc1 [Example 25] | – | > 10000 | – |
| Cc1ccc(C(=O)c2ccc(OC(=O)NN3CCc4ccccc4C3)cc2)cc1 [Example 26] | – | > 10000 | – |
| CN(C)CCc1ccc(OC(=O)NN2CCc3ccccc3C2)cc1 [Example 34] | – | > 10000 | – |
| O=C(NN1CCc2ccccc2C1)Oc1ccc(-c2ccccc2)cc1 [Example 36] | – | > 10000 | – |
| O=C(NN1CCc2ccccc2C1)Oc1ccc(C(=O)c2ccccc2)cc1 [Example 41] | – | > 10000 | – |
| O=C(NN1CCc2ccccc2C1)Oc1ccc(C(=O)CCCCl)cc1 [Example 44] | – | > 10000 | – |
| CC(=O)c1ccc(OC(=O)NN2CCc3ccccc3C2)cc1 [Example 45] | – | > 10000 | – |
| O=C(NN1CCc2ccccc2C1)Oc1ccc(Cl)c(C(F)(F)F)c1 [Example 47] | – | > 10000 | – |
| O=C(NN1CCCCC1)Oc1ccc(Cl)cc1 [Example 48, Piperidin-1-yl-carbamic Acid 4-chloro-phenyl Ester] | – | – | 50 |
| O=C(NN1CCOCC1)Oc1ccc(Cl)cc1 [Example 49, Morpholin-4-yl-carbamic Acid 4-chloro-phenyl Ester] | – | – | 100 |
| S=C(NN1CCc2ccccc2C1)Sc1ccccc1 [Example 50, (3,4-Dihydro-1H-isoquinolin-2-yl)-dithiocarbamic Acid Phenyl Ester] | – | > 10000 | – |
